Patent EP0473671B1, “USE OF SIGMA-RECEPTORS LIGANDS FOR THE MANUFACTURE OF AN ANXIOLYTIC AGENT” (STATE OF OREGON BY AND THROUGH OREGON STATE BOARD OF HIGHER …, priority 1989, dated 1990)
Read-outs that look alike come from different tables or passages of the source.

Experiments:
[1] = biological target: sigma receptors; experiment: Sigma receptor binding assay, displacement of [³H]DTG; conditions: guinea pig brain membrane homogenates, radioligand [³H]DTG […], 90 minutes at room temperature; read-out: IC₅₀ binding values
Procedure: Briefly, frozen whole guinea-pig brains (Biotrol, Indianapolis, IN) were homogenized in 10 volumes (w/v) of ice-cold 320 mM sucrose using a Brinkman polytron. The homogenate was centrifuged at 1,000 x g for 20 minutes at 4°C. The supernatant was centrifuged at 20,000 x g for 20 minutes at 4°C. The resulting pellet was resuspended in 10 initial volumes of 50 mM Tris/HCl buffer at pH 7.4 and centrifuged at 20,000 x g for 20 minutes at 4°C. The resulting pellet was resuspended in 5 initial volumes ice-cold 50mM Tris/Hcl (pH .4), and the final volume was adjusted to yield a protein concentration of 3 mg/ml, as determined by dye-binding protein assay (Biorad) using BSA as the standard.
Incubations were terminated after 90 minutes at room temperature by addition of 4 ml of ice-cold 50mM Tris/HCl (pH 7.4) and rapid filtration of the membrane suspension through Whatman GF/B glass-fiber filters under vacuum, using a 48-well cell harvester (Brandel, Gaithersburg, MD). The filters were washed 2 times with 4 ml of 50 mM Tris/HCl (pH 7.4). Total filtration and washing time was less than 20 seconds. Each filter was dissolved in 10 ml Cytoscint (Westchem, San Diego, CA), and radioactivity was measured by liquid scintillation spectrometry at a counting efficiency of approximately 50%. IC₅₀ values were determined by interpolation from displacement-curve plots on semilogarithmic graph paper.

[2] = system: male albino BKW mice; conditions: mouse, in vivo
[3] = system: Male Hooded Lister rats; experiment: Rat social interaction test; type: in vivo; conditions: for social interactions: 40 min. before testing, 10 min session, n = 6
Source text: A second preferred animal model is the rat social interaction test described by Jones, B.J. et al., supra, wherein the time that two mice spend in social interaction is quantified. […] Both the familiarity and the light level of the test arena may be manipulated. Undrugged rats show the highest level of social interaction when the test arena is familiar and is lit by low light. Social interaction declines if the arena is unfamiliar to the rats or is lit by bright light. Anxiolytic agents prevent this decline. The overall level of motor activity may also be measured to allow detection of drug effects specific to social behaviors.
Male Hooded Lister rats (Glaxo bred, 200-250g), were housed 5 to a cage and were kept in the laboratory environment for at least a week before testing. Rats paired in the test were taken from separate cages.
The test arena consisted of an open-topped box, 62 x 62 x 33 cm with a 7 x 7 matrix of infra-red photocell beams in the walls, 2.5 cm from the floor.
Testing involved placing each member of a pair of rats in opposite corners of the arena and then leaving them undisturbed for 10 min. while recording their behavior remotely on videotape. The behavioral assessments were made subsequently from the recordings. The time spent in social interaction was measured and expressed as a cumulative total for the 10 min session. The behaviors that comprised social interaction were: following with contact, sniffing (but not sniffing of the hindquarters), crawling over and under, tumbling, boxing and grooming.
N-adamantyl-N'-o-tolylguanidine was tested over the range of 0.001-0.1 mg/kg.

[4] = system: male albino BKW mice; experiment: Light/dark exploration of mice (black:white test box); conditions: for numbers of rears and line crossings at the highest dose (sedation) / latency to entering the dark compartment: subcutaneously; for numbers of rears and line crossings at the highest dose (sedation): 0.1 mg/kg, drug not sedative at this level; for numbers of rears and line crossings compared with controls (sedation): not sedative at the dosage level
[5] = subcutaneously 40 min before testing, 0.01 ug to 0.1 mg/kg
[6] = 0.01 ug to 0.1 mg/kg, result in words

## CNC(=N)NC [DMG, N,N'-di(methyl)guanidine]
[1]
  IC50: > 100000 nM

## O=C1CC2(CCCC2)CC(=O)N1CCCCN1CCN(c2nsc3ccccc23)CC1 [tiospirone, reference compound]
[1]
  IC50: 233 ± 52 nM

## N=C1Nc2ccccc2-c2ccccc2N1 [Bridge-DPG, 2-imino-1,3H-dibenzo[d,f]-[1,3]-diazepine]
[1]
  IC50: > 100000 nM

## Cc1ccccc1NC(=N)N[C@@H]1C[C@@H]2CC[C@H]1C2 (racemic) [N-((±)-endo-2-norbornyl)-N'-(2-methylphenyl)guanidine]
[1]
  IC50: 6 nM

## CCCN1CCC[C@@H](c2cccc(O)c2)C1 [(-)-3-PPP, reference compound]
[1]
  IC50: 280 ± 21 nM

## CN1C(=O)CN=C(c2ccccc2)c2cc(Cl)ccc21 [diazepam, reference compound]
[2]
  numbers of rears and line crossings at the highest dose (sedation): decreased significantly
[3]; diazepam intraperitoneally 0.125-1 mg/kg
  social interactions: significantly increased
[4]; mouse, in vivo
  numbers of line crossings and rears in the light compartment: increased at the expense of those in the dark compartment
  proportion of time the mice spent in the larger, lighted area of the test chamber: dose-dependently increased

## N-(adamant-1-yl)-N'-[(E)-2-phenylethenyl]phenylguanidine
[1]
  IC50: 1000 nM
[4]; [5]
  numbers of line crossings and rears in the light compartment: tended to remain the same except at the highest dosage
  proportion of time the mice spent in the larger, lighted area of the test chamber: generally did not increase
[4]
  numbers of rears and line crossings at the highest dose (sedation): did not decrease significantly

## N=C(NC1CCCCC1)NC12CC3CC(CC(C3)C1)C2 [AdChG, N-(cyclohexyl)-N'-(adamant-1-yl)guanidine]
[1]
  IC50: 12.5 nM

## N=C(Nc1ccccc1I)N[C@H]1C[C@@H]2CC[C@H]1C2 (relative stereo) [N-(exo-2-norbornyl)-N'-(2-iodophenyl)guanidine]
[1]
  IC50: 4 nM

## N,N-di(o-tolyl)-guanidine [DTG]
[4]; s.c., at the concentrations tested, Figure 7
  number of rears, crossings, or the % time in the black compartment: did not affect significantly

## Cc1ccccc1NC(=N)NC1CCCCC1 [DChG, N-(o-tolyl)-N'-(cyclohexyl)guanidine]
[1]
  IC50: 86 ± 17 nM

## Cc1ccccc1NC(=N)Nc1ccc(N)cc1C [NH₂-DTG]
[1]
  IC50: 280 ± 20 nM

## N=C(Nc1ccccc1I)NC1C2CC3CC(C2)CC1C3 (centres unmarked) [N-adamant-2-yl)-N'-(2-iodophenyl)guanidine]
[1]
  IC50: 3.5 nM

## Cc1ccccc1NC(=N)N[C@H]1C[C@@H]2CC[C@H]1C2 (relative stereo) [N-(exo-2-norbornyl)-N'-(2-methylphenyl)guanidine]
[1]
  IC50: 7 nM

## C=CCN1CC[C@@]2(C)c3cc(O)ccc3C[C@@H]1[C@@H]2C [(-)-SKF10047, reference compound]
[1]
  IC50: 4000 ± 566 nM

## Cc1cccc(C)c1NC(=N)Nc1c(C)cccc1C [DXG, N,N'-di-(2,6-dimethylphenyl)-guanidine]
[1]
  IC50: 90 ± 18 nM

## N=C(NC12CC3CC(CC(C3)C1)C2)NC12CC3CC(CC(C3)C1)C2 [DAG, N,N'-di(adamant-1-yl)guanidine]
[4]; orally administered, 1 mg/kg
  anxiolytic activity when orally administered: anxiolytic activity
  latency to entering the dark compartment in comparison to controls: increase
  numbers of line crossings and rears in the light compartment: increase
  numbers of rears and line crossings compared with controls (sedation): did not decrease significantly
[4]; [5]
  numbers of line crossings and rears in the light compartment: increased at the expense of those in the dark compartment
  proportion of time the mice spent in the larger, lighted area of the test chamber: tended to increase
[4]
  numbers of rears and line crossings at the highest dose (sedation): did not decrease significantly
[4]; peak effect at 0.01 ug/kg, controls 12 sec
  latency to entering the dark compartment: 20 s

## CCN1CCCC1CNC(=O)c1cc(S(N)(=O)=O)ccc1OC (centres unmarked) [sulpiride, reference compound]
[1]
  IC50: > 100 nM

## CN(C)CCCN1c2ccccc2Sc2ccc(Cl)cc21 [chlorpromazine, reference compound]
[1]
  IC50: 1480 ± 265 nM

## Cc1ccccc1NC(=N)NC1C2CC3CC(C2)CC1C3 (centres unmarked) [N-(adamant-2-yl)-N'-(2-methylphenyl)guanidine]
[1]
  IC50: 7 nM

## Cc1ccccc1NC(=N)NC1CCCCC1 [N-cyclohexyl-N'-(2-methylphenyl)-guanidine]
[1]
  IC50: 13 nM

## N=C(Nc1ccccc1I)N[C@@H]1C[C@@H]2CC[C@H]1C2 (racemic) [N-((±)-endo-2-norbornyl)-N'-(2-iodophenyl)guanidine]
[1]
  IC50: 5 nM

## NC(=Nc1ccccc1I)NC12CC3CC(CC(C3)C1)C2 [AdIpG, N-(2-iodophenyl)-N'-(adamant-1-yl)guanidine]
[1]
  IC50: 6.2 nM
[4]; orally administered, 1 mg/kg
  anxiolytic activity when orally administered: anxiolytic activity
  latency to entering the dark compartment in comparison to controls: increase
  numbers of line crossings and rears in the light compartment: increase
  numbers of rears and line crossings compared with controls (sedation): did not decrease significantly
[4]; [5]
  numbers of line crossings and rears in the light compartment: increased at the expense of those in the dark compartment
  proportion of time the mice spent in the larger, lighted area of the test chamber: increased, in a dose dependant manner
[4]; [6]
  latency to entering the dark compartment: increased in a dose dependant manner
[4]
  numbers of rears and line crossings at the highest dose (sedation): did not decrease significantly

## Cc1ccccc1NC(=N)NC12CC3CC(CC(C3)C1)C2 [AdTG, N-(o-tolyl)-N'-(adamant-1-yl)guanidine]
[3]; 0.001-0.1 mg/kg i.p.
  social interactions: significantly increased
[3]; 1 mg/kg for diazepam and 0.1 mg/kg for N-adamantyl-N'-o-tolylguanidine
  dose producing about the same result, relative to the dose of diazepam: one-tenth
[4]; orally administered, 1 mg/kg
  anxiolytic activity when orally administered: anxiolytic activity
  numbers of line crossings and rears in the light compartment: increased at the expense of those in the dark compartment
  proportion of time the mice spent in the larger, lighted area of the box: increased significantly
[4]; [5]
  numbers of line crossings and rears in the light compartment: increased at the expense of those in the dark compartment
  proportion of time the mice spent in the larger, lighted area of the test chamber: dose dependently increased
[4]; [6]
  latency to entering the dark compartment: increased in a dose dependant manner
[4]
  numbers of rears and line crossings at the highest dose (sedation): did not decrease significantly
